Test results: PubChem BioAssay AID504530 (Southern Research Specialized Biocontainment Screening …, 2011)

Tested on: human PBMC cytotoxicity, % cell control
Assay: viability of primary blood mononuclear cells – cell-based, primary PBMCs, TC50, cytotoxicity control for HIV-1 antiviral lead project, dose response (AID 504530)

Structure (SMILES) | CC50
Cc1c2c(=O)n(-c3nc4ccccc4s3)nc-2cc(O)n1C1CC1 | 2.6 µM
Cc1c2c(=O)n(-c3nc4ccccc4s3)nc-2cc(O)n1CCc1cccs1 | 71.2 µM
Cc1c2c(=O)n(-c3nc4ccccc4s3)nc-2cc(O)n1Cc1ccccc1Cl | 38.9 µM
COc1ccc(Cn2c(O)cc3nn(-c4nc5ccccc5s4)c(=O)c-3c2C)cc1 | 19.2 µM
Cc1c2c(=O)n(-c3nc4ccccc4s3)nc-2cc(O)n1Cc1ccncc1 | 2.4 µM
Cc1c2c(=O)n(-c3nc4ccccc4s3)nc-2cc(O)n1Cc1ccc(F)cc1 | 18.7 µM
COc1ccccc1Cn1c(O)cc2nn(-c3nc4ccccc4s3)c(=O)c-2c1C | 22 µM
Cc1c2c(=O)n(-c3nc4ccccc4s3)nc-2cc(O)n1CCc1ccc(O)cc1 | 2.11 µM
Cc1c2c(=O)n(-c3nc4ccccc4s3)nc-2cc(O)n1Cc1cccs1 | 25.7 µM
COc1ccc(CCn2c(O)cc3nn(-c4nc5ccccc5s4)c(=O)c-3c2C)cc1 | 60 µM
Cc1c2c(=O)n(-c3nc4ccccc4s3)nc-2cc(O)n1CCC(C)C | 41.1 µM
Cc1c2c(=O)n(-c3nc4ccccc4s3)nc-2cc(O)n1Cc1cccnc1 | 2.15 µM
